From ChEMBL document CHEMBL4177690, “(E)-3-(3,4,5-Trimethoxyphenyl)-1-(pyridin-4-yl)prop-2-en-1-one, a heterocyclic chalcone is a potent and selective CYP1A1 inhibitor and cancer chemopreventive agent” (Bioorg Med Chem Lett, 2017) come the findings set out here.

Data set [1] has as its target T1, Aryl hydrocarbon receptor (Homo sapiens, UniProt P35869).
T1 sequence (P35869 whole entry): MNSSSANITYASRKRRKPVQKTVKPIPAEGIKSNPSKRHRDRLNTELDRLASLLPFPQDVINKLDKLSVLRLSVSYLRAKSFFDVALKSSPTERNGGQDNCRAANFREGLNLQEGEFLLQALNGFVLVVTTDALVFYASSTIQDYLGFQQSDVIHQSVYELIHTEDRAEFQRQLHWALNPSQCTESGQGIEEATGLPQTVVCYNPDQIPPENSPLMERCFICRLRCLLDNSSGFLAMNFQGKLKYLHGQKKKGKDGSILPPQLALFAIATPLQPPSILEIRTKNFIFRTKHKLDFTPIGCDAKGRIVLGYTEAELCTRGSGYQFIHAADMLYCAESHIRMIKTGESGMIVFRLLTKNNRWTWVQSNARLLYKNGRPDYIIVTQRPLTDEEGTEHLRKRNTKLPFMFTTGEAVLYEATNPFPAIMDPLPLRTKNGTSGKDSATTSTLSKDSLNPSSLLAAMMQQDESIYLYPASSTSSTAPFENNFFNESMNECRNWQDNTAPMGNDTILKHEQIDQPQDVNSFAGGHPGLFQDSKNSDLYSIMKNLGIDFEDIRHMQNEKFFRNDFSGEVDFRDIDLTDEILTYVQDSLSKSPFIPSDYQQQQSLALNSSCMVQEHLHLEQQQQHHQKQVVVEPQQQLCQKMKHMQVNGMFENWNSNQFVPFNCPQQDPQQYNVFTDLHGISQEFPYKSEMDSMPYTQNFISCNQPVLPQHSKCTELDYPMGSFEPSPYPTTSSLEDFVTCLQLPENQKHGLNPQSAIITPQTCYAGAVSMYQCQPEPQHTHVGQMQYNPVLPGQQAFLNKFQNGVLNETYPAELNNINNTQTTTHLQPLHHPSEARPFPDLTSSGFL
In words: Antagonist activity at recombinant human eGFP-fused Ahr expressed in yeast cells co-expressing ARNT assessed as inhibition of benzo(a)pyrene-induced Ahr activation at 1 uM measured after 18 hrs by fluorescence assay. The format is cell-based.

The next data set concerns the target T2, Cytochrome P450 2A6 (Homo sapiens, UniProt P11509).
T2 sequence (P11509 whole entry): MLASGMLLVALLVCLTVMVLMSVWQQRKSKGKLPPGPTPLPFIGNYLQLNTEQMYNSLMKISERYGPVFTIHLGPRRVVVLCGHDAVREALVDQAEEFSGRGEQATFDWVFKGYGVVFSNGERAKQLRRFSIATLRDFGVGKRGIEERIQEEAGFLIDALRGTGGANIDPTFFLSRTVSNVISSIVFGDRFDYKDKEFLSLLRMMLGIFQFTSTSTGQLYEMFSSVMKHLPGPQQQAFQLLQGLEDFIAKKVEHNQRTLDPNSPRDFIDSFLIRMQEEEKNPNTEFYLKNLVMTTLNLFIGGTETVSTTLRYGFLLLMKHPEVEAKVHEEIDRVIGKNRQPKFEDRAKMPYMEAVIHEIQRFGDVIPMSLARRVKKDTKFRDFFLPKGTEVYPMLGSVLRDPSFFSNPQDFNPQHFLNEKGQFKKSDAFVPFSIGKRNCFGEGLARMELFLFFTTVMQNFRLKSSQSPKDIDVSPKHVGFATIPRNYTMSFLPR
The data set can be described thus: Inhibition of human CYP2A6 expressed in yeast cells. It counts as ADME, cell-based.

The species named for data set [2] is Homo sapiens. In words: Selectivity ratio of IC50 for recombinant human CYP2C9 to IC50 for recombinant human CYP1A1.
The target in the next data set is T3, Cytochrome P450 2J2 (Homo sapiens, UniProt P51589).
T3 sequence (P51589 whole entry): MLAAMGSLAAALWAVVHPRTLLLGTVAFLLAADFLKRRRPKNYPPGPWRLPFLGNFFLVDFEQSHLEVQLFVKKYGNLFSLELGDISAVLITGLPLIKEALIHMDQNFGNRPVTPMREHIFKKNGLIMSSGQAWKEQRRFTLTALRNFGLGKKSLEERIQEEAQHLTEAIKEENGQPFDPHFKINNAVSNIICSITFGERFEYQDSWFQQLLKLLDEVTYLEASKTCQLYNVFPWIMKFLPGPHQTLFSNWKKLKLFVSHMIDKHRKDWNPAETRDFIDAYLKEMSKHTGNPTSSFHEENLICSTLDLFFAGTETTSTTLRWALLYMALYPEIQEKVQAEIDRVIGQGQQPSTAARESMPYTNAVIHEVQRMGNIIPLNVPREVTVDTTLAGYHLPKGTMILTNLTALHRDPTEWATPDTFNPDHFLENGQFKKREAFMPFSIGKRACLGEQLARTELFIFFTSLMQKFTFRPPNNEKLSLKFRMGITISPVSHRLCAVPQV
The data set can be described thus: Inhibition of human CYP2J2 expressed in yeast cells. The format is ADME, cell-based.

In the next data set the target is Cytochrome P450 3A4 (Homo sapiens, UniProt P08684). The data set can be described thus: Inhibition of recombinant human CYP3A4 expressed in HEK293 cells using dibenzylfluorescein as substrate pretreated for 30 mins followed by substrate addition measured for 60 mins by fluorescence assay. The format is ADME.
Chain of Cytochrome P450 3A4 (P08684 whole entry): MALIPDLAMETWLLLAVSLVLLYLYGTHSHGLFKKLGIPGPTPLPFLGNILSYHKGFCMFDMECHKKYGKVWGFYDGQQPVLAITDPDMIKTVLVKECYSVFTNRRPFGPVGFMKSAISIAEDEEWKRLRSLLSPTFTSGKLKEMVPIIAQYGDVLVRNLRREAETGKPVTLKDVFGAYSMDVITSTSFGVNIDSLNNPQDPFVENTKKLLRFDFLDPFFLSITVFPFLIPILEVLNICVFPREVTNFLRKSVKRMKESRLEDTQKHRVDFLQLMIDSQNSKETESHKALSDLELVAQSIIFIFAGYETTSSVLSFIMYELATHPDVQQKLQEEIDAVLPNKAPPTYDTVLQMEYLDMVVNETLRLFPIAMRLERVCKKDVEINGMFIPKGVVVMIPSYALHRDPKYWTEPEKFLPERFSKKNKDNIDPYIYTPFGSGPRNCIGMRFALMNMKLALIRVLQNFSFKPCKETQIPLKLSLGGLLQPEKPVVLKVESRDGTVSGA
A further data set concerns the target Cytochrome P450 2D6 (Homo sapiens, UniProt P10635). The data set can be described thus: Inhibition of recombinant human CYP2D6 expressed in HEK293 cells using 7-ethoxy-methyloxy-3-cyanocoumarin as substrate pretreated for 30 mins followed by substrate addition measured for 60 mins by fluorescence assay. The format is ADME, cell-based.
The species entered for data set [3] is Homo sapiens. In words: Selectivity ratio of IC50 for recombinant human CYP3A4 to IC50 for recombinant human CYP1A1.
A further data set deals with Cytochrome P450 2E1 (Homo sapiens, UniProt P05181). The data set can be described thus: Inhibition of human CYP2E1 expressed in yeast cells. It counts as ADME, cell-based.
Chain of Cytochrome P450 2E1 (P05181 whole entry): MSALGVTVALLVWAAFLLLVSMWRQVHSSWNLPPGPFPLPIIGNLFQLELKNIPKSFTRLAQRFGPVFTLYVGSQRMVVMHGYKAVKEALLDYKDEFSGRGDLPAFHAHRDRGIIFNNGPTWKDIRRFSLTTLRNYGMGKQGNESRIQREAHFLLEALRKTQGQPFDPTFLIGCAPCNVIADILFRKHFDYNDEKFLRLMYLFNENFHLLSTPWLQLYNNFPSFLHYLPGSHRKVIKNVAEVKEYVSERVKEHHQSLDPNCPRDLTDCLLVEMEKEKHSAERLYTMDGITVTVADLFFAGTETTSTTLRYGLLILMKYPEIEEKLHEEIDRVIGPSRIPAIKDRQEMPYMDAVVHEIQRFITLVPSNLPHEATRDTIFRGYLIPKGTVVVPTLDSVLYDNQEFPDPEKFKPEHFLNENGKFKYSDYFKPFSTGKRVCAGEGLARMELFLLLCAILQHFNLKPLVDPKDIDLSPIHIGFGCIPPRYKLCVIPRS
For a further data set, the target named is T4, Cytochrome P450 1A1 (Homo sapiens, UniProt P04798).
T4 sequence (P04798 whole entry): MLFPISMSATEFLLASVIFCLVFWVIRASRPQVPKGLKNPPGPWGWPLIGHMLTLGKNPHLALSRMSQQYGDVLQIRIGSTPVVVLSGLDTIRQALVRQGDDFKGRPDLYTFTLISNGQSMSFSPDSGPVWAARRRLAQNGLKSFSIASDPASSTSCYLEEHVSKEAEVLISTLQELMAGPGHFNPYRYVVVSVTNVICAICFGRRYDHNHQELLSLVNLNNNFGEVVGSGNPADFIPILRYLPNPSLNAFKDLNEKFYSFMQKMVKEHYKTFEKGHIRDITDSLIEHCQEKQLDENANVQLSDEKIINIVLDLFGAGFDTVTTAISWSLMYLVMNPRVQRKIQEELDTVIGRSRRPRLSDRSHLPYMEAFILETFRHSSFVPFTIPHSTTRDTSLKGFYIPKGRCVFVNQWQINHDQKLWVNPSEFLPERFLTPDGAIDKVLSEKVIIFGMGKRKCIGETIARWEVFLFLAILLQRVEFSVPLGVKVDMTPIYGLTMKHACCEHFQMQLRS
In words: Time-dependent inhibition of human CYP1A1 expressed in yeast microsomal membranes using 7-ethoxyresorufin as substrate. The format is cell membranes.

Chain of Cytochrome P450 2D6 (P10635 whole entry): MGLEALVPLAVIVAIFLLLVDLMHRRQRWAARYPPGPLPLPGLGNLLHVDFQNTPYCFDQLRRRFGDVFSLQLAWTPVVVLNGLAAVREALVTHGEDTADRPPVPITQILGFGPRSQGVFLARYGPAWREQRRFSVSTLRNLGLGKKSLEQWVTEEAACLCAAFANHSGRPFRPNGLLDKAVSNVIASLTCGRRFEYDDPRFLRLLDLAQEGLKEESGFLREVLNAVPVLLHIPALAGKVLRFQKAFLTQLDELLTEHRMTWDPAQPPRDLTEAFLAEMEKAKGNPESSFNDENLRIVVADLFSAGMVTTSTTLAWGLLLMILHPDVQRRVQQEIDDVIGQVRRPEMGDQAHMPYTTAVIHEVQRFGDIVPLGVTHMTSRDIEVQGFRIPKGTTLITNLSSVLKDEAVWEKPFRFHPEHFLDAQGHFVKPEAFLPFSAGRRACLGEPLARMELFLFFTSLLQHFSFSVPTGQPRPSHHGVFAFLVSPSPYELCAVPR

Usually IC50 stands for the midpoint of a concentration-inhibition curve. For `COc1cc(/C=C/C(=O)c2ccncc2)cc(OC)c1OC`, the “inhibition (INH)” value in [1] is “Active”. The half-maximal inhibitory concentration (IC50) is more than 10 µM against Cytochrome P450 2A6; more than 20 µM against Cytochrome P450 2J2; more than 10 µM at Cytochrome P450 3A4; more than 10 µM on Cytochrome P450 2D6; more than 10 µM at Cytochrome P450 2E1. Besides, the Ratio IC50 in the data set filed under Homo sapiens [2] and in the data set filed under Homo sapiens [3] was more than 100 each time. Moreover, the TDI entry at Cytochrome P450 1A1 is given as “Not Active”.
